The source made the active and inactive calls. The calls are words filed in the database; no cut-off is given here.
Columns and labels:
[1] = test system: Plasmodium falciparum; test: Antiplasmodial activity against sorbitol-synchronized ring stage chloroquine sensitive Plasmodium falciparum 3D7 infected in human erythrocytes assessed as parasitic growth inhibition incubated for 48 to 50 hrs by SYBR Green 1 based microtiter plate spectrofluorimeteric analysis; assay type: functional, organism-based; settings: 3D7, Erythrocyte
[2] = test system: Plasmodium falciparum; test: Antiplasmodial activity against sorbitol-synchronized ring stage chloroquine resistant Plasmodium falciparum W2 infected in human erythrocytes assessed as parasitic growth inhibition incubated for 48 to 50 hrs by SYBR Green 1 based microtiter plate spectrofluorimeteric analysis; assay type: functional, organism-based; settings: W2, Erythrocyte
[3] = Resistance index, ratio of IC50 for antiplasmodial activity against chloroquine sensitive Plasmodium falciparum 3D7 infected in human erythrocytes to antiplasmodial activity against chloroquine resistant Plasmodium falciparum W2 infected in human erythrocytes; assay type: functional
[4] = Inhibition of Plasmodium falcipain-2 using Z-Leu-Arg-AMC as substrate preincubated for 30 mins followed by substrate addition and measured after 30 mins by microtiter plate spectrofluorimeteric analysis
[5] = Inhibition of Plasmodium falcipain-3 using Z-Leu-Arg-AMC as substrate preincubated for 30 mins followed by substrate addition and measured after 30 mins by microtiter plate spectrofluorimeteric analysis
[6] = Cytotoxicity against African green monkey Vero cells assessed as reduction in cell viability incubated for 72 hrs by MTT assay; assay type: toxicity, cell-based; settings: African green monkey (Chlorocebus sabaeus)
[7] = test system: A549; test: Cytotoxicity against human A549 cells assessed as inhibition of cell growth incubated for 24 hrs by MTT assay; assay type: functional, cell-based; settings: A549, 24 h
[8] = Selectivity index, ratio of IC50 for cytotoxicity against African green monkey Vero cells to antiplasmodial activity against sorbitol-synchronized ring stage chloroquine sensitive Plasmodium falciparum 3D7 infected in human erythrocytes; assay type: toxicity, cell-based; settings: read-out: Ratio IC50
[9] = Selectivity index, ratio of IC50 for cytotoxicity against human […] cells to antiplasmodial activity against sorbitol-synchronized ring stage chloroquine sensitive Plasmodium falciparum 3D7 infected in human erythrocytes; assay type: cell-based; settings: read-out: Ratio IC50
[10] = Selectivity index, ratio of IC50 for cytotoxicity against African green monkey Vero cells to antiplasmodial activity against sorbitol-synchronized ring stage chloroquine resistant Plasmodium falciparum W2 infected in human erythrocytes; assay type: toxicity, cell-based; settings: read-out: Ratio IC50
[11] = Selectivity index, ratio of IC50 for cytotoxicity against human […] cells to antiplasmodial activity against sorbitol-synchronized ring stage chloroquine resistant Plasmodium falciparum W2 infected in human erythrocytes; assay type: cell-based; settings: read-out: Ratio IC50
[12] = test system: Plasmodium falciparum; test: Antiplasmodial activity against ring stage of Plasmodium falciparum assessed as developmental arrest at early trophozoite stage at 3 times IC50 concentration measured after 48 hrs by Giemsa staining based analysis; assay type: functional, organism-based
[13] = test system: Plasmodium falciparum; test: Antiplasmodial activity against ring-stage Plasmodium falciparum assessed as reduction in formation of new rings at 3 times IC50 concentration measured after 48 hrs by Giemsa staining based analysis; assay type: functional, organism-based
[14] = test system: Plasmodium falciparum; test: Antiplasmodial activity against ring-stage Plasmodium falciparum assessed as enlarged feeding vacuoles with hemoglobin accumulation at 3 times IC50 concentration measured after 48 hrs by Giemsa staining based analysis; assay type: functional, organism-based
[15] = Hemolytic activity in human Red blood cells assessed as hemolysis at 100 uM incubated for 2 hrs by spectrofluorimetric analysis; assay type: toxicity, cell-based; settings: erythrocyte
[16] = Inhibition of Plasmodium falciparum ATP4

Compound	IC50 [1]	IC50 [2]	Ratio IC50 [3]	IC50 [4]	IC50 [5]	IC50 at 72 h [6]	IC50 [7]	selectivity ratio [8]	selectivity ratio [9]	selectivity ratio [10]	selectivity ratio [11]	Activity [12]	Activity [13]	Activity [14]	Activity [15]	IC50 [16]
O=C1CC2(CCN(c3nc(N4CCN(C(=S)NCc5ccccc5)CC4)nc4ccccc34)CC2)Oc2ccccc21	4.79 µM	14.4 µM	0.33	10.4 µM	10.8 µM	> 1000 µM	214 µM	> 209	44.7	> 69.6	14.9					
Cc1ccc(NC(=S)N2CCN(c3nc(N4CCC5(CC4)CC(=O)c4ccccc4O5)c4ccccc4n3)CC2)cc1	16.1 µM	> 15 µM														
COc1ccccc1NC(=S)N1CCN(c2nc(N3CCC4(CC3)CC(=O)c3ccccc3O4)c3ccccc3n2)CC1	3.42 µM	5.12 µM	0.66	5.4 µM	6.2 µM	> 1000 µM	82.5 µM	> 292	24.1	> 195	16.1	Active	Active	Active	Non-toxic	
O=C1CC2(CCN(c3nc(N4CCN(C(=S)Nc5ccc(F)cc5)CC4)nc4ccccc34)CC2)Oc2ccccc21	4.66 µM	8.98 µM	0.52	11.4 µM	14.4 µM	> 1000 µM	307 µM	> 215	65.8	> 111	34.1					
O=C1CC2(CCN(c3nc(N4CCN(C(=S)Nc5ccc(OC(F)(F)F)cc5)CC4)nc4ccccc34)CC2)Oc2ccccc21	3.88 µM	> 15 µM														
Cc1cccc(C)c1NC(=S)N1CCN(c2nc(N3CCC4(CC3)CC(=O)c3ccccc3O4)c3ccccc3n2)CC1	4.83 µM	7.12 µM	0.68	5.9 µM	6.4 µM	> 1000 µM	102 µM	> 207	21	> 140	14.3	Active	Active	Active	Non-toxic	
O=C1CC2(CCN(c3nc(N4CCN(C(=S)Nc5ccccc5)CC4)nc4ccccc34)CC2)Oc2ccccc21	24.7 µM	> 15 µM														
CC(C)C[C@H](NC(=O)[C@@H]1O[C@H]1C(=O)O)C(=O)NCCCCN=C(N)N				0.0544 µM	0.116 µM											
COc1ccc(NC(=S)N2CCN(c3nc(N4CCC5(CC4)CC(=O)c4ccccc4O5)c4ccccc4n3)CC2)cc1	23.3 µM	> 15 µM														
O=C1CC2(CCN(c3nc(N4CCN(C(=S)Nc5ccc(Br)cc5)CC4)nc4ccccc34)CC2)Oc2ccccc21	7.29 µM	4.84 µM	1.51													
COc1cccc(NC(=S)N2CCN(c3nc(N4CCC5(CC4)CC(=O)c4ccccc4O5)c4ccccc4n3)CC2)c1	5.68 µM	3.87 µM	1.47													
C[C@H]1Cc2c([nH]c3cc(Cl)c(F)cc23)[C@@]2(N1)C(=O)Nc1ccc(Cl)cc12 [CIPARGAMIN]																0.001 µM
CCc1nc(N)nc(N)c1-c1ccc(Cl)cc1 [PYRIMETHAMINE]		0.129 µM														
O=C1CC2(CCN(c3nc(N4CCN(C(=S)Nc5cccc(Cl)c5)CC4)nc4ccccc34)CC2)Oc2ccccc21	6.37 µM	> 15 µM														
O=C1CC2(CCN(c3nc(N4CCN(C(=S)Nc5ccccc5Cl)CC4)nc4ccccc34)CC2)Oc2ccccc21	3.98 µM	4.43 µM	0.9	4.6 µM	5.9 µM	> 1000 µM	67.2 µM	> 251	16.9	> 226	15.2	Active	Active	Active	Non-toxic	
O=C1CC2(CCN(c3nc(N4CCN(C(=S)Nc5cccc(C(F)(F)F)c5)CC4)nc4ccccc34)CC2)Oc2ccccc21	7.97 µM	> 15 µM														
O=C1CC2(CCN(c3nc(N4CCN(C(=S)Nc5ccc(F)c(Cl)c5)CC4)nc4ccccc34)CC2)Oc2ccccc21	3.18 µM	3.56 µM	0.89	3.9 µM	4.9 µM	> 1000 µM	58.3 µM	> 314	18.3	> 281	16.4	Active	Active	Active	Non-toxic	
O=C1CC2(CCN(c3nc(N4CCN(C(=S)Nc5ccc(F)cc5F)CC4)nc4ccccc34)CC2)Oc2ccccc21	5.28 µM	> 15 µM														
O=C1CC2(CCN(c3nc(N4CCN(C(=S)Nc5ccc(F)c(F)c5)CC4)nc4ccccc34)CC2)Oc2ccccc21	17.7 µM	> 15 µM														

Source: ChEMBL document CHEMBL6134804, “Identifying thiourea-based hybrids of quinazoline and oxospirochromane as inhibitors of Plasmodium cysteine proteases arresting the parasitic growth at the early trophozoite stage” (Bioorg Med Chem Lett, 2025)
